Like-named read-outs stand apart in the source and are kept apart here.

This note sets out measurements from patent publication US9334279B2, “Hepatitis C virus inhibitors” (BRISTOL-MYERS SQUIBB COMPANY, priority 2012, dated 2016).

Experiment [1] relates to HCV GT1b(Con1) replicon. Briefly: HCV replicon luciferase reporter assay, genotype 1b. The settings on record: Hepatitis C virus, 72 h, HUH-7 cells, Renilla luciferase, 3 days incubation. The experiment is classed as cell-based, HCV genotype 1b. A digest of the protocol: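 HUH-7 cells stably carrying a Con1 GT1b replicon with Renilla luciferase and Ser1179Ile adaptive mutation; 3.0×10^3 cells/well, DMEM 4% FCS, 0.5% DMSO, twenty-point 3-fold titration, 3 days 37 °C. Luminescence 2 h after 7.5 μM EnduRen; EC50 by four-parameter logistic fit. CC50 from multiplexed Cell Titer-Blue fluorescence (8 h).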
In general terms: Replicon systems follow genome replication, usually without infectious particles.

The test system of experiment [2] is HCV GT1a(H77) replicon. As to the kind of experiment: HCV replicon luciferase reporter assay, genotype 1a. Format: cell-based, HCV genotype 1a. Particulars: Hepatitis C virus, 72 h, HUH-7 cells, Renilla luciferase, 3 days incubation. A digest of the protocol:
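Huh-7 cells stably carried a GT1a(H77) Renilla luciferase replicon with NS3 P1496L and NS5A S2204I adaptive mutations. Luminescence was read after 2 h with 7.5 μM EnduRen, and EC50 came from a four-parameter logistic fit; CC50 came from multiplexed Cell Titer-Blue (8 h).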

By EC50 is commonly meant the concentration at which the effect is half-maximal. As to `CC(C)Oc1ccc(-c2cc(O[C@@H]3C[C@H]4C(=O)N[C@]5(C(=O)NS(=O)(=O)C6(C)CC6)C[C@H]5/C=C\CC[C@@H](C)C[C@@H](C)[C@H](NC(=O)OC5(C(F)(F)F)CCCOC5)C(=O)N4C3)cc(-c3cncs3)n2)cc1` (stereo partly drawn) [Compound 1017, 3-(trifluoromethyl)tetrahydro-2H-pyran-3-yl ((2R,6S,7R,9R,13aS,14aR,16aS,Z)-2-((2-(4-isopropoxyphenyl)-6-(thiazol-5-yl)pyridin-4-yl)oxy)-7,9-dimethyl-14a-(((1-methylcyclopropyl)sulfonyl)carbamoyl)-5,16-dioxo-1,2,3,5,6,7,8,9,10,11,13a,14,14a,15,16,16a-hexadecahydrocyclopropa[e]pyrrolo[1,2-a][1,4]diazacyclopentadecin-6-yl)carbamate], the EC50 in experiment [1] (read-out: LE_1b (EC50)) was 0.82 nM; in experiment [1] (read-out: LE_1b (EC50, range)) it was 0.51 to 1 nM; in experiment [2] (read-out: LE_1a (EC50)), 0.95 nM; in experiment [2] (read-out: LE_1a (EC50, range)) it was 0.51 to 1 nM.

As to `CC(C)Oc1ccc(-c2cc(O[C@@H]3C[C@H]4C(=O)N[C@]5(C(=O)NS(=O)(=O)C6(C)CC6)C[C@H]5/C=C\CC[C@H](C)C[C@@H](C)[C@H](NC(=O)OC5(C(F)(F)F)CCCOC5)C(=O)N4C3)cc(-c3cncs3)n2)cc1` (stereo partly drawn) [Compound 1018, 3-(trifluoromethyl)tetrahydro-2H-pyran-3-yl ((2R,6S,7R,9S,13aS,14aR,16aS,Z)-2-((2-(4-isopropoxyphenyl)-6-(thiazol-5-yl)pyridin-4-yl)oxy)-7,9-dimethyl-14a-(((1-methylcyclopropyl)sulfonyl)carbamoyl)-5,16-dioxo-1,2,3,5,6,7,8,9,10,11,13a,14,14a,15,16,16a-hexadecahydrocyclopropa[e]pyrrolo[1,2-a][1,4]diazacyclopentadecin-6-yl)carbamate], the EC50 in experiment [1] (read-out: LE_1b (EC50, range)) is 1.01 to 5 nM; in experiment [2] (read-out: LE_1a (EC50, range)), 5.01 to 35 nM.

For `CC(C)Oc1ccc(-c2cc(O[C@@H]3C[C@H]4C(=O)N[C@]5(C(=O)NS(=O)(=O)C6(C)CC6)C[C@H]5/C=C\CC[C@@H](C)C[C@@H](C)[C@H](NC(=O)OC(C)(C)C(F)(F)F)C(=O)N4C3)cc(-c3ncccn3)n2)cc1` [Compound 1019, 1,1,1-trifluoro-2-methylpropan-2-yl ((2R,6S,7R,9R,13aS,14aR,16aS,Z)-2-((2-(4-isopropoxyphenyl)-6-(pyrimidin-2-yl)pyridin-4-yl)oxy)-7,9-dimethyl-14a-(((1-methylcyclopropyl)sulfonyl)carbamoyl)-5,16-dioxo-1,2,3,5,6,7,8,9,10,11,13a,14,14a,15,16,16a-hexadecahydrocyclopropa[e]pyrrolo[1,2-a][1,4]diazacyclopentadecin-6-yl)carbamate], the 50% effective concentration (EC50) in experiment [1] (read-out: LE_1b (EC50, range)) lay in the range of 1.01 to 5 nM; in experiment [2] (read-out: LE_1a (EC50, range)), 1.01 to 5 nM.

Regarding `CC(C)Oc1ccc(-c2cc(O[C@@H]3C[C@H]4C(=O)N[C@]5(C(=O)NS(=O)(=O)C6(C)CC6)C[C@H]5/C=C\CC[C@H](C)C[C@@H](C)[C@H](NC(=O)OC(C)(C)C(F)(F)F)C(=O)N4C3)cc(-c3ncccn3)n2)cc1` [Compound 1020, 1,1,1-trifluoro-2-methylpropan-2-yl ((2R,6S,7R,9S,13aS,14aR,16aS,Z)-2-((2-(4-isopropoxyphenyl)-6-(pyrimidin-2-yl)pyridin-4-yl)oxy)-7,9-dimethyl-14a-(((1-methylcyclopropyl)sulfonyl)carbamoyl)-5,16-dioxo-1,2,3,5,6,7,8,9,10,11,13a,14,14a,15,16,16a-hexadecahydrocyclopropa[e]pyrrolo[1,2-a][1,4]diazacyclopentadecin-6-yl)carbamate], the EC50 in experiment [1] (read-out: LE_1b (EC50, range)) fell in the range of 1.01 to 5 nM; in experiment [2] (read-out: LE_1a (EC50, range)), 5.01 to 35 nM.

For `CC(C)Oc1ccc(-c2cc(O[C@@H]3C[C@H]4C(=O)N[C@]5(C(=O)NS(=O)(=O)C6(C)CC6)C[C@H]5/C=C\CC[C@@H](C)C[C@@H](C)[C@H](NC(=O)OC(C)(C)C(F)(F)F)C(=O)N4C3)cc(-c3ccccn3)n2)cc1` [Compound 1021, 1,1,1-trifluoro-2-methylpropan-2-yl ((2R,6S,7R,9R,13aS,14aR,16aS,Z)-2-((6-(4-isopropoxyphenyl)-[2,2′-bipyridin]-4-yl)oxy)-7,9-dimethyl-14a-(((1-methylcyclopropyl)sulfonyl)carbamoyl)-5,16-dioxo-1,2,3,5,6,7,8,9,10,11,13a,14,14a,15,16,16a-hexadecahydrocyclopropa[e]pyrrolo[1,2-a][1,4]diazacyclopentadecin-6-yl)carbamate], the EC50 lay in the range of 0.51 to 1 nM in experiment [1] (read-out: LE_1b (EC50, range)) and 1.01 to 5 nM in experiment [2] (read-out: LE_1a (EC50, range)).

For `CC(C)Oc1ccc(-c2cc(O[C@@H]3C[C@H]4C(=O)N[C@]5(C(=O)NS(=O)(=O)C6(C)CC6)C[C@H]5/C=C\CC[C@H](C)C[C@@H](C)[C@H](NC(=O)OC(C)(C)C(F)(F)F)C(=O)N4C3)cc(-c3ccccn3)n2)cc1` [Compound 1022, 1,1,1-trifluoro-2-methylpropan-2-yl ((2R,6S,7R,9S,13aS,14aR,16aS,Z)-2-((6-(4-isopropoxyphenyl)-[2,2′-bipyridin]-4-yl)oxy)-7,9-dimethyl-14a-(((1-methylcyclopropyl)sulfonyl)carbamoyl)-5,16-dioxo-1,2,3,5,6,7,8,9,10,11,13a,14,14a,15,16,16a-hexadecahydrocyclopropa[e]pyrrolo[1,2-a][1,4]diazacyclopentadecin-6-yl)carbamate], the EC50 in experiment [1] (read-out: LE_1b (EC50, range)) lay in the range of 1.01 to 5 nM; in experiment [2] (read-out: LE_1a (EC50, range)), 5.01 to 35 nM.

Regarding `C[C@@H]1CC/C=C\[C@@H]2C[C@@]2(C(=O)NS(=O)(=O)C2(C)CC2)NC(=O)[C@@H]2C[C@@H](Oc3cc(-c4nccs4)nc(-c4nccs4)c3)CN2C(=O)[C@@H](NC(=O)OC(C)(C)C(F)(F)F)[C@H](C)C1` [Compound 1023, 1,1,1-trifluoro-2-methylpropan-2-yl ((2R,6S,7R,9R,13aS,14aR,16aS,Z)-2-((2,6-di(thiazol-2-yl)pyridin-4-yl)oxy)-7,9-dimethyl-14a-(((1-methylcyclopropyl)sulfonyl)carbamoyl)-5,16-dioxo-1,2,3,5,6,7,8,9,10,11,13a,14,14a,15,16,16a-hexadecahydrocyclopropa[e]pyrrolo[1,2-a][1,4]diazacyclopentadecin-6-yl)carbamate], the concentration for a half-maximal effect (EC50) in experiment [1] (read-out: LE_1b (EC50)) is 0.4 nM; in experiment [1] (read-out: LE_1b (EC50, range)), 0.1 to 0.5 nM; in experiment [2] (read-out: LE_1a (EC50)) it was 0.46 nM; in experiment [2] (read-out: LE_1a (EC50, range)), 0.1 to 0.5 nM.

Consider `C[C@H]1CC/C=C\[C@@H]2C[C@@]2(C(=O)NS(=O)(=O)C2(C)CC2)NC(=O)[C@@H]2C[C@@H](Oc3cc(-c4nccs4)nc(-c4nccs4)c3)CN2C(=O)[C@@H](NC(=O)OC(C)(C)C(F)(F)F)[C@H](C)C1` [Compound 1024, 1,1,1-trifluoro-2-methylpropan-2-yl ((2R,6S,7R,9S,13aS,14aR,16aS,Z)-2-((2,6-di(thiazol-2-yl)pyridin-4-yl)oxy)-7,9-dimethyl-14a-(((1-methylcyclopropyl)sulfonyl)carbamoyl)-5,16-dioxo-1,2,3,5,6,7,8,9,10,11,13a,14,14a,15,16,16a-hexadecahydrocyclopropa[e]pyrrolo[1,2-a][1,4]diazacyclopentadecin-6-yl)carbamate], for which the EC50 is 0.51 to 1 nM in experiment [1] (read-out: LE_1b (EC50, range)) and 1.01 to 5 nM in experiment [2] (read-out: LE_1a (EC50, range)).
